Activity calls are given as the source filed them. The calls are words filed in the database; no cut-off is given here.
How the values were obtained:
[1] = target: T1, CDGSH iron-sulfur domain-containing protein 2 (Homo sapiens, UniProt Q8N5K1); test: Binding affinity to recombinant human N-terminal His6-tagged NAF1 expressed in Escherichia coli by scintillation proximity assay
T1 sequence (Q8N5K1 whole entry): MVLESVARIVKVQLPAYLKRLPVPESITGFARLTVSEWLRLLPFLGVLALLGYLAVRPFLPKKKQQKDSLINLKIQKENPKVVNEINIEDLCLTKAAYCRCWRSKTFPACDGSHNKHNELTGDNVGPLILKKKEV

[2] = target: T2, CDGSH iron-sulfur domain-containing protein 2 (Homo sapiens) (UniProt Q8N5K1); test: Binding affinity to NAF1 (unknown origin) expressed in human HepG2 cells assessed as inhibition of mitochondrial respiration at 30 uM; type: cell-based
T2 sequence (whole entry): T1 sequence (Q8N5K1 whole entry)

[3] = target: T2, CDGSH iron-sulfur domain-containing protein 2 (Homo sapiens); test: Binding affinity to NAF1 in human HepG2 cells assessed as inhibition of mitochondrial respiration at 30 uM; type: cell-based
[4] = target: T2, CDGSH iron-sulfur domain-containing protein 2 (Homo sapiens); test: Binding affinity to NAF1 (unknown origin) expressed in human HepG2 cells assessed as increase in mitochondrial respiration at 30 uM relative to wild-type cells; type: cell-based

Row | IC50 [1] | inhibition [2] | inhibition [3] | Compound | Activity [4]
1 | 2.29 µM | Active | Active | CN(CCOc1ccc(CC2SC(=O)NC2=O)cc1)c1ccccn1 (stereo not given) [ROSIGLITAZONE] | –
2 | 29.8 µM | Active | Active | CC(C)(C)c1cc(CC2SC(=O)N=C2O)cc(C(C)(C)C)c1O (stereo not given) | –

Row | Compound | IC50 [1] | inhibition [2] | inhibition [3] | Activity [4]
3 | CCc1ccc(CCOc2ccc(CC3SC(=O)NC3=O)cc2)nc1 (stereo not given) [PIOGLITAZONE] | 4.8 µM | Active | Active | 13%

Source: ChEMBL document CHEMBL4368935, “Binding of thiazolidinediones to the endoplasmic reticulum protein nutrient-deprivation autophagy factor-1” (Bioorg Med Chem Lett, 2019)
